Measurements published in US9409893B2, “Heteroaryl derivatives and uses thereof” (Jacobus Pharmaceutical Company, Inc., priority 2012, dated 2016).
Counter-ions that a name gives are not always drawn. Like-named read-outs stand apart in the source and are kept apart here. Marks after values point to notes of the source that are not given here.

Legend:
[1] = test system: Plasmodium berghei (KBG-173 strain); assay: Plasmodium berghei assay in vivo (modified Thompson Test) in CD-1 mice; conditions: for Average Days Survival: 31 day experiment
Protocol: In vivo antimalarial activity was tested in male or female Charles River CD-1 mice that were 4-5 weeks old and weighed 20-25 g They were housed in groups of 3 or 4 in standard plastic cages with wire tops, Bed-o-Cob® bedding, 12 hr/day of light, and maintained at 75° F. They were fed a standard Ralston Purina mouse chow and the cages and bottles were changed twice a week. Test compounds were ground in a mortar and pestle and diluted with enough vehicle to give a volume of 10 mL/kg of mouse weight. The oral doses were prepared in 0.5% hydroxyethylcellulose (Union Carbide Corp. WP 4400)/0.1% Tween-80 (Fisher Scientific T164-500). The amount of drug was calculated on the free base weight. The mice were infected intraperitoneally on day 0 with 5×10^4 erythrocytes parasitized with Plasmodium berghei (KBG-173 strain) from a donor mouse having a parasitemia between 5-10%. On days 3, 4 and 5 the test compounds were administered bid, spaced 6 hr apart, by oral gavage to the mice. Activity was measured by survival, with full activity defined as all animals living at day 31. Partial activity is defined as days of increased survival versus the infected non-treated controls. This in vivo model is a modification of the Thompson Test. For further description see Ager, A. L, Jr. Rodent Malaria Models. In Handbook of Experimental Pharmacology: Antimalarial Drugs. 1. 68/1; Peters, W., Richards, W. H. G., Eds.: Springer-Verlag: Berlin, 1984, pp. 231-33.

P. falciparum strain W2 = assay: [3H]-hypoxanthine growth inhibition assay, P. falciparum W2; format: cell-based; conditions: Plasmodium falciparum
Protocol: (§1) The potential for antimalarial activity against Plasmodium falciparum was determined by measuring the incorporation of tritiated hypoxanthine into parasitized red blood cells.
(§2) Stock solutions of the test compounds and the reference drug chloroquine (CQ) (Sigma Chemicals C-6628, Lot #059H0919) were prepared in silanized glass vials with AquaSil™ (Pierce, USA) to minimize absorption of the compounds to glassware. All test compounds were dissolved in DMSO (Sigma Cat No. #D8418) to 1 mM concentration, whereas CQ was dissolved in 50% methanol at a concentration of 1.6 mg/ml (base). Stock solutions were stored at −20° C.
(§3) The P. falciparum laboratory adapted strains utilized in this project (Table 1) were in vitro cultured and routinely maintained in RPMI-1640-LPLF complete medium, which contained low concentrations of para-amino benzoic acid (0.0005 mg/L) and folic acid (0.01 mg/L).
(§4) The low concentration of folic acid in RPMI-1640-LPLF prevents inhibition of the compound if its activity targets the parasite's folate metabolic pathway. Parasites were cultured in human red blood cells (RBCs) in vitro at 37° C. in special gas mixture (5% O2, 5% CO2 and 90% N2) as described Trager and Jensen (1979 Science 193:673-675).
(§5) Base cultivation medium consisted of 10.4 g/L RPMI-1640-LPLF powder (Gibco BRL), 5.97 g/L HEPES buffer (MP Biomedicals, USA), 2.0 g/L D-glucose (BDH chemicals, Australia), 0.05 g/L hypoxanthine (Sigma, USA) and 40 mg/L gentamycin (Pfizer, Australia). The pH of the medium was adjusted to 6.9 and the solution was filtered using 0.2 μm pore size (AcroCap, Gelman Science, USA). Complete medium was prepared by adding sodium bicarbonate solution (final concentration, 0.21%) and drug-free heat-inactivated human plasma, pooled from various blood types, obtained from the Australian Red Cross Blood Service (Brisbane) (final concentration, 10%) to the base RPMI-1640-LPLF. For [^3H]-hypoxanthine inhibition growth assay, RPMI-1640-LPLF complete medium which lacked [^3H]-hypoxanthine ([^3H]-RPMI-1640-LPLF) was used to prevent uptake of hypoxanthine by parasites, as radioactive hypoxanthine uptake is measured as a surrogate marker of growth. All complete medium was used within three days of preparation. See DE (Para) SOP 002 for methodology.
(§6) Red blood cells (RBC) were required for P. falciparum parasites to proliferate in vitro. 0 (Rh+) type blood was obtained from the Australian Red Cross Blood Service. The RBC were washed twice in phosphate-buffered saline (PBS) and once in [^3H]-RPMI-1640-LPLF complete medium by centrifugation at 1,500×g for 5 min. Following the final wash, the haematocrit was measured as the percent of RBC to total culture volume. The haematocrit was adjusted to 50% by removing or adding [^3H]-RPMI-LPLF complete medium. See DE (Para) SOP 003 for methodology.
(§7) All P. falciparum strains were grown in RPMI-1640-LPLF complete medium at 4% haematocrit and 1% to 8% parasitaemia at 37° C. in sealed flasks in a gas mixture of 5% O2, 5% CO2 and 90% N2 (BOC Gases, Brisbane, Australia). For drug susceptibility assays cultures were routinely synchronized when the majority of parasites (>85%) were at early trophozoite (ring) stage. Synchronization involved removing the more mature erythrocytic parasite stages by lysis, resulting in the retention only of early trophozoite (ring) stages. Synchronization was performed by re-suspending the infected red blood cell (iRBC) pellet in 5 to 10 times its volume of 5% D-sorbitol (Bacto Laboratories Pty. Ltd., Australia) for 5 min (Lambros and Vanderberg, 1979 J Parasitol 65: 418-420). The mixture was centrifuged (1,500 rpm for 5 min) and the supernatant removed. The iRBC were washed twice using PBS buffer and once using [^3H]-RPMI-LPLF plain medium. Following synchronization, a new culture was prepared with an initial parasitaemia of 1% in RPMI-LPLF complete medium. See DE (Para) SOP 008 for methodology.

P. falciparum strain D6 = assay: [3H]-hypoxanthine growth inhibition assay, P. falciparum D6; format: cell-based; conditions: Plasmodium falciparum
Protocol: as §1, §2, §3, §4, §5, §6, §7

[2] = 4 mg/kg/day oral, bid on days 3, 4 and 5
[3] = 16 mg/kg/day oral, bid on days 3, 4 and 5
[4] = 64 mg/kg/day oral, bid on days 3, 4 and 5
[5] = Plasmodium berghei, po, 744 h, read-out: Number of mice alive at day 31
[6] = P. falciparum W2 (resistant to chloroquine and pyrimethamine), [3H]-hypoxanthine incorporation, read-out: W2 IC50
[7] = P. falciparum D6 (sensitive to chloroquine and pyrimethamine), [3H]-hypoxanthine incorporation, read-out: D6 IC50

| Structure (SMILES) | IC50 (P. falciparum strain W2; W2, read-out: W2 IC50) [nM] | IC50 (P. falciparum strain D6; D6, read-out: D6 IC50) [nM] | IC50 (P. falciparum strain W2; [6]) [nM] | IC50 (P. falciparum strain D6; [7]) [nM] | also measured |
| --- | --- | --- | --- | --- | --- |
| CCN(CC)CCCC(C)Nc1ccnc2cc(Cl)ccc12 (stereo not shown) [Chloroquine, chloroquine, reference compound] | 133 | 12 |  |  | Average Days Survival [1, 2]: 10.3 days; Average Days Survival [1, 3]: >18.8 days; Average Days Survival [1, 4]: >18.6 days; Average Days Survival ([1]; 128 mg/kg/day oral, bid on days 3, 4 and 5): >21.3 days; responders at 4 mg/kg [1, 5]: 0%; responders at 16 mg/kg [1, 5]: 14.3%; responders at 64 mg/kg [1, 5]: 28.6%; responders at 128 mg/kg [1, 5]: 57.1% |
| CC(C)(C)NCc1cc(C(C)(C)C)cc(-c2cnc(Cl)c(Cl)c2)c1O.Cl [Example 41, 4-(tert-Butyl)-2-((tert-butylamino)methyl)-6-(5,6-dichloropyridin-3-yl)phenol hydrochloride] |  |  | 3 | 10 | Average Days Survival [1, 2]: >31* days; Average Days Survival ([1]; 8 mg/kg/day oral, bid on days 3, 4 and 5): >31* days; Average Days Survival [1, 3]: >31* days; Average Days Survival ([1]; 32 mg/kg/day oral, bid on days 3, 4 and 5): >31* days; Average Days Survival [1, 4]: >31* days; responders at 4 mg/kg ([1]; Plasmodium berghei, 744 h, 4 mg/kg/day oral, bid on days 3, 4 and 5, CD-1 mice infected with P. berghei, read-out: Number of mice alive at day 31 (converted)): 100%; responders at 8 mg/kg ([1]; Plasmodium berghei, 744 h, 8 mg/kg/day oral, bid on days 3, 4 and 5, CD-1 mice infected with P. berghei, read-out: Number of mice alive at day 31 (converted)): 100%; responders at 16 mg/kg ([1]; Plasmodium berghei, 744 h, 16 mg/kg/day oral, bid on days 3, 4 and 5, CD-1 mice infected with P. berghei, read-out: Number of mice alive at day 31 (converted)): 100%; responders at 32 mg/kg ([1]; Plasmodium berghei, 744 h, 32 mg/kg/day oral, bid on days 3, 4 and 5, CD-1 mice infected with P. berghei, read-out: Number of mice alive at day 31 (converted)): 100%; responders at 64 mg/kg ([1]; Plasmodium berghei, 744 h, 64 mg/kg/day oral, bid on days 3, 4 and 5, CD-1 mice infected with P. berghei, read-out: Number of mice alive at day 31 (converted)): 100% |
| CCN(CC)CCCNCc1cc(C(C)(C)C)cc(-c2ccc(C(F)(F)F)nc2)c1O [Example 61, 4-(tert-Butyl)-2-(((3-(diethylamino)propyl)amino)methyl)-6-(6-(trifluoromethyl)pyridin-3-yl)phenol dihydrochloride] | 32 | 44 |  |  |  |
| CC(C)(C)c1cc(CNCCCN)c(O)c(-c2ccc(C(F)(F)F)nc2)c1 [Example 62, 2-(((3-Aminopropyl)amino)methyl)-4-(tert-butyl)-6-(6-(trifluoromethyl)pyridin-3-yl)phenol dihydrochloride] | 223 | 133 |  |  |  |
| CCN(CC)CCNCc1cc(C(C)(C)C)cc(-c2ccc(C(F)(F)F)nc2)c1O [Example 63, 4-(tert-Butyl)-2-(((2-(diethylamino)ethyl)amino)methyl)-6-(6-(trifluoromethyl)pyridin-3-yl)phenol dihydrochloride] | 7 | 9 |  |  |  |
| CC(C)(C)c1cc(CN)c(O)c(-c2ccc(C(F)(F)F)nc2)c1 [Example 64, 2-(Aminomethyl)-4-(tert-butyl)-6-(6-(trifluoromethyl)pyridin-3-yl)phenol hydrochloride] |  |  | 202 | 216 |  |
| CC(CN)NCc1cc(C(C)(C)C)cc(-c2ccc(C(F)(F)F)nc2)c1O (stereo not shown) [Example 65, 2-(((1-Aminopropan-2-yl)amino)methyl)-4-(tert-butyl)-6-(6-(trifluoromethyl)pyridin-3-yl)phenol dihydrochloride] | 210 | 394 |  |  |  |
| CC(C)(C)NCc1cc(-c2cccc(F)c2)cc(-c2ccc(C(F)(F)F)nc2)c1O [Example 67, 3-((tert-Butylamino)methyl)-3′-fluoro-5-(6-(trifluoromethyl)pyridin-3-yl)-[1,1′-biphenyl]-4-ol hydrochloride] |  |  | 53 | 100 |  |
| CC(C)(C)NCc1cc(F)cc(-c2ccc(C(F)(F)F)nc2)c1O [Example 68, 2-((tert-Butylamino)methyl)-4-fluoro-6-(6-(trifluoromethyl)pyridin-3-yl)phenol hydrochloride] |  |  | 126 | 221 |  |
| CC(C)(C)NCc1cc(Cl)cc(-c2ccc(C(F)(F)F)nc2)c1O [Example 69, 2-((tert-Butylamino)methyl)-4-chloro-6-(6-(trifluoromethyl)pyridin-3-yl)phenol hydrochloride] |  |  | 130 | 239 |  |
| CC(C)(C)NCc1cc(C#N)cc(-c2ccc(C(F)(F)F)nc2)c1O [Example 71, 3-((tert-Butylamino)methyl)-4-hydroxy-5-(6-(trifluoromethyl)pyridin-3-yl)benzonitrile hydrochloride] |  |  | 50700 | 93100 |  |
| CC(C)(C)NCc1cc(S(C)(=O)=O)cc(-c2ccc(C(F)(F)F)nc2)c1O [Example 72, 2-((tert-Butylamino)methyl)-4-(methylsulfonyl)-6-(6-(trifluoromethyl)pyridin-3-yl)phenol hydrochloride] |  |  | 81600 | 125000 |  |
| CC(NC(C)(C)C)c1cc(C(C)(C)C)cc(-c2ccc(C(F)(F)F)nc2)c1O (stereo not shown) [Example 73, 4-(tert-Butyl)-2-(1-(tert-butylamino)ethyl)-6-(6-(trifluoromethyl)pyridin-3-yl)phenol hydrochloride] |  |  | 2740 | 1860 |  |
| CC(C)(C)NCc1cc(-c2ccc(Cl)cc2)nc(-c2ccc(C(F)(F)F)nc2)c1O [Example 74, 4-((tert-Butylamino)methyl)-6-(4-chlorophenyl)-6′-(trifluoromethyl)-[2,3′-bipyridin]-3-ol 1.1hydrochloride] |  |  | 23 | 54 |  |
